The values below come from US7101878B1 (Agouron Pharmaceuticals, Inc., priority 1998, dated 2006).

The target of one assay is T1, mouse GnRH receptor (Mus musculus, UniProt Q01776).
T1 construct: expressed in transfected cells; host or cells: 293 cells
T1 sequence (Q01776 1-327): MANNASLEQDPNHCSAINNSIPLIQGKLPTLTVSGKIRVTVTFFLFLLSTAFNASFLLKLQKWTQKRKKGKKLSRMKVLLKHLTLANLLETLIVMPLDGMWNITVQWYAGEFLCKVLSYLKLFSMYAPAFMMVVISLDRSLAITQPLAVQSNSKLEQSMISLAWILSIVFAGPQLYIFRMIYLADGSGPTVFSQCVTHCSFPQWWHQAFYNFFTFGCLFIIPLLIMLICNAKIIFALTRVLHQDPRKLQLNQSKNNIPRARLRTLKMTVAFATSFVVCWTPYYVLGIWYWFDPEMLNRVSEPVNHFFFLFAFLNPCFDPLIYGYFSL
The experiment in a line: Radioligand binding, 125I-GnRH-A, 293 cells expressing mouse GnRH receptors. Conditions: 10 uM; read-out: % Inhib. @ 10 uM mGnRH. Summed up: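 Bound label captured on 0.1% polyethyleneimine-treated GF/C filters, washed three times with PBS, counted. IC50 derived; identical set-up for every species.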
Take `Cc1cc2c(cc1Cc1ccc(C(=O)NC(C)CO)o1)C(C)(C)CCC2(C)C` (centres unmarked) [drawing 1241]: the inhibition at 10 µM stood at 82%. On the same count and under the same terms, with `CCCCN(CCCC)CCCNC(=O)c1ccc(Cc2cc3c(cc2C)C(C)(C)CCC3(C)C)o1` [drawing 1242] the figure was 103%; with `Cc1cc2c(cc1Cc1ccc(C(=O)NC3CCN(Cc4ccccc4)C3)o1)C(C)(C)CCC2(C)C` (centres unmarked) [drawing 1243], 101%; with `CCN(CC)CCCNC(=O)c1ccc(Cc2cc3c(cc2C)C(C)(C)CCC3(C)C)o1` [drawing 1244], 100%. Still for that read-out and setting: the value for `Cc1cc2c(cc1Cc1ccc(C(=O)N3CCC(n4c(=O)[nH]c5ccccc54)CC3)o1)C(C)(C)CCC2(C)C` [drawing 1246] was 80%. For `Cc1cc2c(cc1Cc1ccc(C(=O)N3CCN(CCOCCO)CC3)o1)C(C)(C)CCC2(C)C` [drawing 1252], the inhibition at 10 µM came out at 63%.

Take `COc1cc2c(cc1OC)CN(C(=O)c1ccc(Cc3cc4c(cc3C)C(C)(C)CCC4(C)C)o1)CC2` [drawing 1253]: the inhibition at 10 µM worked out at 46%. The same measure, in the same setting: with `Cc1cc2c(cc1Cc1ccc(C(=O)N(CCCN(C)C)CCCN(C)C)o1)C(C)(C)CCC2(C)C` [drawing 1254] the figure was 71%; with `Cc1cc2c(cc1Cc1ccc(C(=O)N(CCN(C)C)Cc3ccccc3)o1)C(C)(C)CCC2(C)C` [drawing 1255], 104%. Still for that read-out and setting: with `Cc1cc2c(cc1Cc1ccc(C(=O)N3CCN(C(=O)c4ccco4)CC3)o1)C(C)(C)CCC2(C)C` [drawing 1264] the figure was 89%; with `Cc1cc2c(cc1Cc1ccc(C(=O)N3CCN(C4CCCCC4)CC3)o1)C(C)(C)CCC2(C)C` [drawing 1265], 102%; with `COCCCNC(=O)c1ccc(Cc2cc3c(cc2C)C(C)(C)CCC3(C)C)o1` [drawing 1268], 101%. Same read-out and setting: with `Cc1cc2c(cc1Cc1ccc(C(=O)NCC(F)(F)F)o1)C(C)(C)CCC2(C)C` [drawing 1271] the figure was 26%; with `CCCNC(=O)c1ccc(Cc2cc3c(cc2C)C(C)(C)CCC3(C)C)o1` [drawing 1274], 93%. `CCCCN(C(=O)c1ccc(Cc2cc3c(cc2C)C(C)(C)CCC3(C)C)o1)C(C)c1ccccc1` (centres unmarked) [drawing 1275]: the inhibition at 10 µM is 65%. Still for that read-out and setting: the value for `Cc1ccc(N2CCN(C(=O)c3ccc(Cc4cc5c(cc4C)C(C)(C)CCC5(C)C)o3)CC2C)cc1` (centres unmarked) [drawing 1276] was 73%; that for `Cc1cc2c(cc1Cc1ccc(C(=O)N(Cc3cccnc3)Cc3cccn3C)o1)C(C)(C)CCC2(C)C` [drawing 1285] was 100%; that for `Cc1cc2c(cc1Cc1ccc(C(=O)N(Cc3cccnc3)Cc3ccccc3F)o1)C(C)(C)CCC2(C)C` [drawing 1287] was 95%. `CCOC(CN(CCc1ccccc1)C(=O)c1ccc(Cc2cc3c(cc2C)C(C)(C)CCC3(C)C)o1)OCC` [drawing 1296]: the inhibition at 10 µM came to 66%. For the compound `CCCN(CCc1ccccn1)C(=O)c1ccc(Cc2cc3c(cc2C)C(C)(C)CCC3(C)C)o1` [drawing 1297], the inhibition at 10 µM worked out at 100%. Same read-out and setting: the value for `COC(=O)C1CCCN1C(=O)c1ccc(Cc2cc3c(cc2C)C(C)(C)CCC3(C)C)o1` (centres unmarked) [drawing 1298] was 97%. The same measure, in the same setting: the value for `Cc1cc2c(cc1Cc1ccc(C(=O)NCC3CCCCC3)o1)C(C)(C)CCC2(C)C` [drawing 1302] was 72%. Same read-out and setting: with `COc1cccc(CN(Cc2cccc(Oc3cccc(C(F)(F)F)c3)c2)C(=O)c2ccc(Cc3cc4c(cc3C)C(C)(C)CCC4(C)C)o2)c1OC` [drawing 1307] the figure was 75%; with `Cc1cc2c(cc1Cc1ccc(C(=O)N3CCC(CNC(=O)C(F)(F)F)CC3)o1)C(C)(C)CCC2(C)C` [drawing 1308], 41%. Turning to `Cc1cc2c(cc1Cc1ccc(C(=O)N(CCC#N)Cc3ccco3)o1)C(C)(C)CCC2(C)C` [drawing 1309], the inhibition at 10 µM turned out to be 77%.

The assay is the same for the next values; noted with them: 1 h, substrate remaining; 10 uM compound; closer to zero = closer to 100% inhibition; read-out: S%R 10 uM mGnRHR.
For `CSCCC(CO)NC(=O)c1ccc(Cc2cc3c(cc2C)C(C)(C)CCC3(C)C)o1` (centres unmarked) [Compound 675], the remaining activity at 10 µM is -5%. The same measure, in the same setting: with `Cc1cc2c(cc1Cc1ccc(C(=O)NCCC3OCCO3)o1)C(C)(C)CCC2(C)C` [Compound 676] the figure was -4%; with `Cc1cc2c(cc1Cc1ccc(C(=O)N3CCc4ccccc4C3Cc3ccccc3)o1)C(C)(C)CCC2(C)C` (centres unmarked) [Compound 677], 54%; with `Cc1cc2c(cc1Cc1ccc(C(=O)NCCc3c[nH]c4ccc(O)cc34)o1)C(C)(C)CCC2(C)C` [Compound 678], 17%.

As for `CCC(O)CNC(=O)c1ccc(Cc2cc3c(cc2C)C(C)(C)CCC3(C)C)o1` (centres unmarked) [Compound 679], the remaining activity at 10 µM worked out at 1%. The same measure, in the same setting: with `CCCCN(C)C(=O)c1ccc(Cc2cc3c(cc2C)C(C)(C)CCC3(C)C)o1` [Compound 680] the figure was 0%; with `Cc1cc2c(cc1Cc1ccc(C(=O)N(Cc3ccco3)C3CCN(Cc4ccccc4)C3)o1)C(C)(C)CCC2(C)C` (centres unmarked) [Compound 681], 6%; with `Cc1cc2c(cc1Cc1ccc(C(=O)NCc3cccc(NC(=O)NC(Cc4ccccc4)c4ccccc4)c3)o1)C(C)(C)CCC2(C)C` (centres unmarked) [Compound 682], 59%. On the same count and under the same terms, with `CC[C@H](C)C(CO)NC(=O)c1ccc(Cc2cc3c(cc2C)C(C)(C)CCC3(C)C)o1` (some centres unmarked) [Compound 683] the figure was 23%; with `CCOC(=O)CCNC(=O)c1ccc(Cc2cc3c(cc2C)C(C)(C)CCC3(C)C)o1` [Compound 684], 2%; with `Cc1cc2c(cc1Cc1ccc(C(=O)NC(C)CO)o1)C(C)(C)CCC2(C)C` (centres unmarked) [Compound 685], 19%. Still for that read-out and setting: the value for `Cc1cc2c(cc1Cc1ccc(C(=O)N3CCN(CCOCCO)CC3)o1)C(C)(C)CCC2(C)C` [Compound 686] was 37%. `CCCNC(=O)c1ccc(Cc2cc3c(cc2C)C(C)(C)CCC3(C)C)o1` [Compound 687]: the remaining activity at 10 µM was determined as 7%. On the same count and under the same terms, with `Cc1cc2c(cc1Cc1ccc(C(=O)N(Cc3cccnc3)Cc3cccn3C)o1)C(C)(C)CCC2(C)C` [Compound 688] the figure was 0%; with `CCOC(CN(CCc1ccccc1)C(=O)c1ccc(Cc2cc3c(cc2C)C(C)(C)CCC3(C)C)o1)OCC` [Compound 689], 34%. Take `COc1cccc(CN(Cc2cccc(Oc3cccc(C(F)(F)F)c3)c2)C(=O)c2ccc(Cc3cc4c(cc3C)C(C)(C)CCC4(C)C)o2)c1OC` [Compound 690]: the remaining activity at 10 µM was found to be 25%. On the same count and under the same terms, with `Cc1cc2c(cc1Cc1ccc(C(=O)N(Cc3cccnc3)CC3CC=CCC3)o1)C(C)(C)CCC2(C)C` (centres unmarked) [Compound 691] the figure was 7%; with `CCCCN(CCCC)CCCNC(=O)c1ccc(Cc2cc3c(cc2C)C(C)(C)CCC3(C)C)o1` [Compound 692], -2%; with `COc1cc2c(cc1OC)CN(C(=O)c1ccc(Cc3cc4c(cc3C)C(C)(C)CCC4(C)C)o1)CC2` [Compound 693], 55%. Still for that read-out and setting: with `Cc1cc2c(cc1Cc1ccc(C(=O)N3CCN(C(=O)c4ccco4)CC3)o1)C(C)(C)CCC2(C)C` [Compound 694] the figure was 11%. Still for that read-out and setting: with `CCCCN(C(=O)c1ccc(Cc2cc3c(cc2C)C(C)(C)CCC3(C)C)o1)C(C)c1ccccc1` (centres unmarked) [Compound 695] the figure was 35%. In the case of `Cc1cc2c(cc1Cc1ccc(C(=O)N(Cc3ccccc3)Cc3ccc(Cl)c(Cl)c3)o1)C(C)(C)CCC2(C)C` [Compound 696], the remaining activity at 10 µM turned out to be 21%. The same measure, in the same setting: with `CCCN(CCc1ccccn1)C(=O)c1ccc(Cc2cc3c(cc2C)C(C)(C)CCC3(C)C)o1` [Compound 697] the figure was 1%; with `Cc1cc2c(cc1Cc1ccc(C(=O)N3CCC(CNC(=O)C(F)(F)F)CC3)o1)C(C)(C)CCC2(C)C` [Compound 698], 59%; with `Cc1cc2c(cc1Cc1ccc(C(=O)NC3CCN(Cc4ccccc4)C3)o1)C(C)(C)CCC2(C)C` (centres unmarked) [Compound 699], -1%. On to `Cc1cc2c(cc1Cc1ccc(C(=O)N(CCCN(C)C)CCCN(C)C)o1)C(C)(C)CCC2(C)C` [Compound 700], for which the remaining activity at 10 µM amounted to 30%. Consider `Cc1cc2c(cc1Cc1ccc(C(=O)N3CCN(C4CCCCC4)CC3)o1)C(C)(C)CCC2(C)C` [Compound 701], for which the remaining activity at 10 µM was -1%. On the same count and under the same terms, with `Cc1ccc(N2CCN(C(=O)c3ccc(Cc4cc5c(cc4C)C(C)(C)CCC5(C)C)o3)CC2C)cc1` (centres unmarked) [Compound 702] the figure was 28%. Still for that read-out and setting: with `Cc1cc2c(cc1Cc1ccc(C(=O)N(Cc3cccnc3)Cc3ccccc3F)o1)C(C)(C)CCC2(C)C` [Compound 703] the figure was 5%.

As for `COC(=O)C1CCCN1C(=O)c1ccc(Cc2cc3c(cc2C)C(C)(C)CCC3(C)C)o1` (centres unmarked) [Compound 704], the remaining activity at 10 µM came out at 4%. Take `Cc1cc2c(cc1Cc1ccc(C(=O)N(CCC#N)Cc3ccco3)o1)C(C)(C)CCC2(C)C` [Compound 705]: the remaining activity at 10 µM worked out at 23%. The same measure, in the same setting: with `Cc1cc2c(cc1Cc1ccc(C(=O)NC(CO)CC(C)C)o1)C(C)(C)CCC2(C)C` (centres unmarked) [Compound 706] the figure was 3%; with `CCN(CC)CCCNC(=O)c1ccc(Cc2cc3c(cc2C)C(C)(C)CCC3(C)C)o1` [Compound 707], 0%. Same read-out and setting: the value for `Cc1cc2c(cc1Cc1ccc(C(=O)N(CCN(C)C)Cc3ccccc3)o1)C(C)(C)CCC2(C)C` [Compound 708] was -4%.
